{"source": "paper PMC6749524", "about": "“Identification of New Antifungal Agents Targeting Chitin Synthesis by a Chemical-Genetic Method” (Molecules, 2019)", "test_system": "CHS1, CHS2, and CHS3 genes", "assay": "qRT-PCR gene expression", "format": "cell-based, S. cerevisiae", "details": "25 μg/mL, 16 hours", "experimental": "WT yeast cells were grown to 10^5 CFU/mL in YPD medium and then treated with 25 μg/mL compounds or 0.25% DMSO for 16 hours at 30 °C. Then, the cells were collected by centrifugation at 1500 g for 5 min and washed twice with water. Total RNA was prepared using the Yeast RNA kit (OMEGA R6870-01, Norcross, GA, USA) and treated with DNase Ⅰ (TransGen GD201-01, Beijing, China) to remove genomic DNA. The resulting RNA was reverse-transcribed with the cDNA synthesis super-mix kit (TransGen AT311, Beijing, China). qRT-PCR was performed using Fast Universal SYBR Green Master (Rox, Roche, Mannheim, Gemany) and gene-specific primers (Table S1). The DNA level was measured using an Real-Time Quantitative Thermal Cycler (FTC-3000, Funglyn Biotech Inc, Toronto, Canada). The expression levels were correlated with the copy numbers used to amplify the gene to reach the threshold, then represented as the mean ± SEM relative to the cells treated with DMSO. One-way ANOVAs were performed to identify deviation from the mean."}
{"substance": "N-(2-(diethylamino) ethyl)-N-(7-hydroxy-4-methoxybenzo[d]thiazol -2-yl)-2-oxo-2H-chromene-3-carboxamide [IMB-D10]", "values": [{"measurement": "expression levels of CHS1, CHS2, and CHS3 genes", "value": "did not decrease significantly"}]}
